Measured values published in US11078202B2, “β-lactamase inhibitor and use thereof” (priority 2018, dated 2021).
Counter-ions that a name gives are not always drawn.

Assays:
Type in all cases: cell-based
[1] = system: Acinetobacter baumannii XNWB 0007; assay: MIC assay of test compounds combined with ceftazidime (8 μg/mL); settings: ceftazidime 8 μg/mL fixed
Outline: (§1)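 Inoculum: TSA-grown colonies (35±2 °C, 20-24 h, subcultured once), NaCl 0.9% suspension at OD600 0.1-0.15, then 300× dilution into 1.1×CAMHB. Serial compound dilutions with the partner antibiotic at a fixed level; ambient-air incubation 16-20 h, 35±2 °C; CLSI-based MIC readout.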

[2] = system: Klebsiella pneumoniae XNWB 0001; assay: as above; settings: ceftazidime 8 μg/mL fixed
Outline: as §1

[3] = system: Klebsiella pneumoniae XNWB 0002; assay: as above; settings: ceftazidime 8 μg/mL fixed
Outline: as §1

[4] = system: Klebsiella pneumoniae XNWB 0003; assay: as above; settings: ceftazidime 8 μg/mL fixed
Outline: as §1

[5] = system: Klebsiella pneumoniae XNWB 0004; assay: as above; settings: ceftazidime 8 μg/mL fixed
Outline: as §1

[6] = system: Klebsiella pneumoniae XNWB 0005; assay: as above; settings: ceftazidime 8 μg/mL fixed
Outline: as §1

[7] = system: Klebsiella pneumoniae XNWB 0006; assay: as above; settings: ceftazidime 8 μg/mL fixed
Outline: as §1

[8] = system: Pseudomonas aeruginosa XNWB 0008; assay: as above; settings: ceftazidime 8 μg/mL fixed
Outline: as §1

[9] = system: Acinetobacter baumannii XNWB 0007; assay: MIC assay of test compounds combined with imipenem (4 μg/mL); settings: imipenem 4 μg/mL fixed
Outline: as §1

[10] = system: Klebsiella pneumoniae XNWB 0001; assay: as above; settings: imipenem 4 μg/mL fixed
Outline: as §1

[11] = system: Klebsiella pneumoniae XNWB 0002; assay: as above; settings: imipenem 4 μg/mL fixed
Outline: as §1

[12] = system: Klebsiella pneumoniae XNWB 0003; assay: as above; settings: imipenem 4 μg/mL fixed
Outline: as §1

[13] = system: Klebsiella pneumoniae XNWB 0004; assay: as above; settings: imipenem 4 μg/mL fixed
Outline: as §1

[14] = system: Klebsiella pneumoniae XNWB 0005; assay: as above; settings: imipenem 4 μg/mL fixed
Outline: as §1

[15] = system: Klebsiella pneumoniae XNWB 0006; assay: as above; settings: imipenem 4 μg/mL fixed
Outline: as §1

[16] = system: Pseudomonas aeruginosa XNWB 0008; assay: as above; settings: imipenem 4 μg/mL fixed
Outline: as §1

[17] = system: Enterobacter aerogenes XNWB 0011; assay: MIC assay of test compounds combined with ampicillin (8 μg/mL); settings: ampicillin 8 μg/mL fixed
Description: (§2) The bacterial strains used for the minimum inhibitory concentration (MIC) test were frozen in a −80° C. ULT freezer and thawed 2 days before use. A small amount of frozen bacterial strains were scraped using a sterile inoculating loop, streaked onto a TSA solid culture dish for inoculation, and then cultured for 20-24 h at 35±2° C. in a normal atmospheric environment.
(§3) 5-10 colonies with similar morphology were picked from the culture dish using a sterile inoculating loop and then re-streaked onto a suitable solid culture dish. Then the dish was placed into a normal incubator for culture for 20-24 h at 35±2° C.
(§4) 5-10 single bacterial colonies were picked from the solid culture dish, resuspended in 500 μL of 0.9% NaCl, and adjusted to an OD600 of 0.1-0.15 with a spectrophotometer.
(§5) The bacteria were then diluted 300-fold with 1.1×CAMHB.
(§6) Test compounds of columns A-H: having a highest final test concentration of 64 μg/mL or 32 μg/mL, 2-fold diluted.
(§7) Dilution of test compounds: All test compounds were dissolved and diluted in dimethylsulfoxide (DMSO). 170 μL of 3.2 mg/mL (50*64 μg/mL) compound was transferred to wells (A1-H1) of column 1 of a dilution master plate and then 85 μL of DMSO was transferred to wells of other columns. Each compound was diluted 2-fold in sequence (i.e., 85 μL of compound was pipetted from column 1 into column 2 and mixed uniformly, 85 μL of compound was pipetted from column 2 into column 3 and mixed uniformly, then 85 μL of compound was pipetted from column 3 into column 4 and mixed uniformly, and so on until the dilution was done in column 11).
(§8) Preparation of an additive of ampicillin: Ampicillin was dissolved in ddH2O. 30 μL of 100 μg/mL (12.5×8 μg/mL) ampicillin was transferred to columns 1-11 of an additive plate, followed by the addition of 30 μL of ddH2O to column 12.
(§9) 2 μL of each compound in the dilution master plate of the test compounds was transferred to the corresponding well of the assay plates. In the mean time, 2 μL of 100% DMSO was transferred to the compound-free wells (GC and SC wells). (1) 8 μL of imipenem in the additive plate of imipenem was transferred to the corresponding wells of the assay plates; (2) 8 μL of ceftazidime in the additive plate of ceftazidime was transferred to the corresponding wells of the assay plates; (3) 8 μL of ampicillin in the additive plate of ampicillin was transferred to the corresponding wells of the assay plates.
(§10) 90 μL of corresponding bacterial inocula were added to wells (except for SC wells) of the assay plates.
(§11) After addition, the 6 assay plates were covered by sterile covers. The mixtures in the assay plates were centrifuged by a centrifuge at 1000 rpm for 30 s, and mixed uniformly by oscillating with a microplate oscillator at 800 rpm for 1 min, and then cultured in a common incubator for 16-20 h at 35±2° C.
(§12) The minimum inhibitory concentration of each compound was recorded by reference to guidelines from the Clinical and Laboratory Standards Institute.
(§13) The minimum inhibitory concentrations of the compounds of the present invention and antibiotics (imipenem, ceftazidime, and ampicillin) against 11 strains of bacteria were tested in this study by reference to the medium microdilution method as indicated by the Clinical and Laboratory Standards Institute. The effect of the test compounds in combination with imipenem, ceftazidime, and ampicillin was also tested. Compounds were diluted two-fold in 96-well plates from the highest detection concentration of 64 μg/mL. The test compounds were tested in combination with a fixed concentration of imipenem (4 μg/mL), ceftazidime (8 μg/mL), and ampicillin (8 μg/mL). The bacterial inocula in the assay plates were resuscitated from TSA and diluted in CAMHB, while growth controls (GC wells) and sterile controls (SC wells) were set up in the assay plates. […]

[18] = system: Escherichia coli XNWB 0009; assay: as above; settings: ampicillin 8 μg/mL fixed
Description: as §2, §3, §4, §5, §6, §7, §8, §9, §10, §11, §12, §13

[19] = system: Escherichia coli XNWB 0010; assay: as above; settings: ampicillin 8 μg/mL fixed
Description: as §2, §3, §4, §5, §6, §7, §8, §9, §10, §11, §12, §13

| Structure (SMILES) | The minimum concentration of test compounds combined with ceftazidime (8 μg/mL) for bacteriostasis [1] | The minimum concentration of test compounds combined with ceftazidime (8 μg/mL) for bacteriostasis [2] | The minimum concentration of test compounds combined with ceftazidime (8 μg/mL) for bacteriostasis [3] | The minimum concentration of test compounds combined with ceftazidime (8 μg/mL) for bacteriostasis [4] | The minimum concentration of test compounds combined with ceftazidime (8 μg/mL) for bacteriostasis [5] | The minimum concentration of test compounds combined with ceftazidime (8 μg/mL) for bacteriostasis [6] | The minimum concentration of test compounds combined with ceftazidime (8 μg/mL) for bacteriostasis [7] | The minimum concentration of test compounds combined with ceftazidime (8 μg/mL) for bacteriostasis [8] | The minimum concentration of test compounds combined with imipenem (4 μg/mL) for bacteriostasis [9] | The minimum concentration of test compounds combined with imipenem (4 μg/mL) for bacteriostasis [10] | The minimum concentration of test compounds combined with imipenem (4 μg/mL) for bacteriostasis [11] | The minimum concentration of test compounds combined with imipenem (4 μg/mL) for bacteriostasis [12] | The minimum concentration of test compounds combined with imipenem (4 μg/mL) for bacteriostasis [13] | The minimum concentration of test compounds combined with imipenem (4 μg/mL) for bacteriostasis [14] | The minimum concentration of test compounds combined with imipenem (4 μg/mL) for bacteriostasis [15] | The minimum concentration of test compounds combined with imipenem (4 μg/mL) for bacteriostasis [16] | The minimum concentration of test compounds combined with ampicillin (8 μg/mL) for bacteriostasis [17] | The minimum concentration of test compounds combined with ampicillin (8 μg/mL) for bacteriostasis [18] | The minimum concentration of test compounds combined with ampicillin (8 μg/mL) for bacteriostasis [19] |
| --- | --- | --- | --- | --- | --- | --- | --- | --- | --- | --- | --- | --- | --- | --- | --- | --- | --- | --- | --- |
| N=C(N)NCc1nnc([C@@H]2CC3(CC3)[C@@H]3CN2C(=O)N3OS(=O)(=O)O)o1 [Example 3, (1R,4S)-4-(5-(guanidinomethyl)-1,3,4-oxadiazol-2-yl)-6-oxo-5,7-diazaspiro[bicycle [3.2.1]octane-2,1′-cyclopropan]-7-yl sulfate] | C (C: 16-128 μg/mL) | B (B: 8-16 μg/mL) | A (A: <8 μg/mL) | B (B: 8-16 μg/mL) | B (B: 8-16 μg/mL) | B (B: 8-16 μg/mL) | A (A: <8 μg/mL) | C (C: 16-128 μg/mL) | C (C: 16-128 μg/mL) | B (B: 8-16 μg/mL) | A (A: <8 μg/mL) | A (A: <8 μg/mL) | A (A: <8 μg/mL) | A (A: <8 μg/mL) | A (A: <8 μg/mL) | C (C: 16-128 μg/mL) | C (C: 16-128 μg/mL) | A (A: <8 μg/mL) | B (B: 8-16 μg/mL) |
| NCCc1nnc([C@@H]2CC3(CC3)[C@@H]3CN2C(=O)N3OS(=O)(=O)O)o1 [Example 4, (1R,4S)-4-(5-(2-aminoethyl)-1,3,4-oxadiazol-2-yl)-6-oxo-5,7-diazaspiro[bicycle[3.2.1]octane-2,1′-cyclopropan]-7-yl sulfate] | C (C: 16-128 μg/mL) | A (A: <8 μg/mL) | A (A: <8 μg/mL) | A (A: <8 μg/mL) | A (A: <8 μg/mL) | A (A: <8 μg/mL) | A (A: <8 μg/mL) | C (C: 16-128 μg/mL) | B (B: 8-16 μg/mL) | A (A: <8 μg/mL) | A (A: <8 μg/mL) | A (A: <8 μg/mL) | A (A: <8 μg/mL) | A (A: <8 μg/mL) | A (A: <8 μg/mL) | A (A: <8 μg/mL) | B (B: 8-16 μg/mL) | A (A: <8 μg/mL) | A (A: <8 μg/mL) |
